Assay results: EP4755881A1 (Wuhan Createrna Science and Technology Co., Ltd., priority 2023, dated 2025)
Where two headings read alike, the source gives them in different places.

Experiments:
[1] = target: hLPAR1 (human lysophosphatidic acid receptor 1, Accession No.: NM_001401.4) (Homo sapiens, UniProt Q92633); assay: cell-based; details: FLIPR method, CHO-K1 cells overexpressing hLPAR1
How it was run: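 Antagonist mode in CHO-K1 cells stably expressing hLPAR1, Fluo-4 loaded; compound preincubated 30 min at room temperature before 1 µM oleoyl-LPA (final) challenge.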

[2] = Pharmacokinetic study in rats (oral gavage and tail vein injection, plasma LC-MS/MS); assay type: in vivo
Protocol: Male SPF-grade SD rats (Beijing Vital River Laboratory Animal Technology Co., Ltd.) with a body weight range of 200 to 250 g were used. After acclimatization, the rats were administered a clear solution of the compound of the present disclosure via oral gavage (Po, fasted overnight before administration with free access to water, food returned 4 hours after administration) and tail vein injection (Iv, free access to food and water throughout the administration). Blood samples were collected from the orbital venous plexus/jugular vein of rats at specified time points after administration (blood collection time points for the PO group: 0.167, 0.5, 1, 2, 4, 6, 8, and 24 h; for the IV group: 0.033, 0.167, 1, 2, 4, 6, 8, and 24 h). The concentration of compounds in plasma was detected by LC-MS/MS (AB SCIEX Qtrap4500). Data were analyzed using WinNonlin (version 5.2.1 Pharsight, Mountain View, CA) with a non-compartmental model to obtain PK parameters (including Cmax, C0, Tmax, AUClast, AUCinf, T1/2, etc.).
Table 3: Results of in vivo pharmacokinetic studies of compounds of the present disclosure in rats
The vehicle for the Po group compound was 5% DMSO + 5% ethanol + 60% PEG400 + 30% normal saline; the vehicle for the Iv group compound was 10% ethanol + 20% pure water + 70% PEG400 solution.

[3] = LPAR1 inhibitory activity IC50, Table 1
[4] = rat, SD rats, Iv, 1 mg/kg, read-out: Cmax
[5] = rat, SD rats, Po, 1 mg/kg, read-out: Cmax
[6] = Table 1, read-out: LPAR1 inhibitory activity IC50
[7] = male, rat, SD rats, Iv, 1 mg/kg
[8] = male, rat, SD rats, Iv, 1 mg/kg, read-out: Cmax
[9] = male, rat, SD rats, Po, 3 mg/kg
[10] = male, rat, SD rats, Po, 3 mg/kg, read-out: Cmax
[11] = male, rat, SD rats, Po, 1 mg/kg
[12] = male, rat, SD rats, Po, 1 mg/kg, read-out: Cmax

hLPAR1 (human lysophosphatidic acid receptor 1, Accession No.: NM_001401.4), sequence (Q92633 whole entry): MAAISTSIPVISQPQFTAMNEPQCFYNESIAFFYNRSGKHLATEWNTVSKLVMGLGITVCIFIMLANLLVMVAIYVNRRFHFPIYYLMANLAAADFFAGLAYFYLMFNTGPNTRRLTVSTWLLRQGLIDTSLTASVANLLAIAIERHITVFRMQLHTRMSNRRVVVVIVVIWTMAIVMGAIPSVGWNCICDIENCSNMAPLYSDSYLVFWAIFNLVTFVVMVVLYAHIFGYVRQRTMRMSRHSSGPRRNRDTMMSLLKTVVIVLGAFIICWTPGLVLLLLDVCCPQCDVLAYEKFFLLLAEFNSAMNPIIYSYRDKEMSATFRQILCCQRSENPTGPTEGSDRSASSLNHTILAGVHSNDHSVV

| SMILES | AUC(0-t) ([2]; rat, SD rats, Iv, 1 mg/kg) [µg·h/mL] | half-life ([2]; rat, SD rats, Iv, 1 mg/kg) [h] | Cmax [2, 4] [µg/mL] | IC50 [1, 6] [µM] | half-life ([2]; male, SD, rat, iv, 1 mg/kg) [h] | AUC(0-t) [2, 7] [µg·h/mL] | Cmax [2, 8] [µg/mL] | half-life ([2]; male, SD, rat, po, 1 mg/kg) [h] | AUC(0-t) [2, 11] [µg·h/mL] | Cmax [2, 12] [µg/mL] | other results |
| --- | --- | --- | --- | --- | --- | --- | --- | --- | --- | --- | --- |
| Cc1nc(-c2nnn(C)c2NC(=O)O[C@H](C)CC(C)(F)F)ccc1C#C[C@H]1CCC[C@@H]1C(=O)O (single isomer, unassigned) [246-B] | 5 to 10 | 7.01 | 0.8 to 5 | – | – | – | – | – | – | – | IC50 [1, 3]: 0.0259 µM; AUC(0-t) ([2]; rat, SD rats, Po, 1 mg/kg): 3 to 5 µg·h/mL; half-life ([2]; rat, SD rats, Po, 1 mg/kg): 4.4 h; Cmax [2, 5]: 0.2 to 0.8 µg/mL |
| Cc1nc(-c2nnn(C)c2CNC(=O)OCCC(C)C)ccc1C#CC1(CC(=O)O)CC1 [compound 253] | – | – | – | 0.0723 | 4.06 | 1.2 to 3 | 5 to 8 | – | – | – | half-life ([2]; male, SD, rat, po, 3 mg/kg): 3.45 h; AUC(0-t) [2, 9]: 5 to 10 µg·h/mL; Cmax [2, 10]: 0.8 to 5 µg/mL |
| Cc1nc(-c2nnn(C)c2NC(=O)O[C@H](C)c2ccccc2Cl)ccc1C#C[C@H]1CC[C@@H]1C(=O)O [compound 033] | 3 to 5 | 5.93 | 0.8 to 5 | – | – | – | – | – | – | – | IC50 [1, 3]: 0.0033 µM; AUC(0-t) ([2]; rat, SD rats, Po, 1 mg/kg): 3 to 5 µg·h/mL; half-life ([2]; rat, SD rats, Po, 1 mg/kg): 5.31 h; Cmax [2, 5]: 0.8 to 5 µg/mL |
| C[C@H](C1CC1)N(C)C(=O)OCc1c(-c2ccc(C#CC3(CC(=O)O)CC3)cn2)nnn1C [compound 002, (R)-2-(1-((6-(5-((((1-cyclopropylethyl)(methyl)carbamoyl)oxy)methyl)-1-methyl-1H-1,2,3-triazol-4-yl)pyridin-3-yl)ethynyl)cyclopropyl)acetic acid] | – | – | – | 0.0834 | 7.18 | 1.2 to 3 | 5 to 8 | – | – | – | half-life ([2]; male, SD, rat, po, 3 mg/kg): 3.4 h; AUC(0-t) [2, 9]: 3 to 5 µg·h/mL; Cmax [2, 10]: 0.8 to 5 µg/mL |
| Cc1nc(-c2nnn(C)c2NC(=O)O[C@H](C)CC(C)(F)F)ccc1C#CC1(CC(=O)O)CCC1 [compound 324] | – | – | – | 0.0503 | 12.1 | 3 to 5 | 0.8 to 5 | 5.73 | 5 to 10 | 0.8 to 5 | – |
| C[C@H](CC(C)(F)F)OC(=O)Nc1c(-c2ccc(C#CC3(CC(=O)O)CC3)c(Cl)n2)nnn1C [compound 210, (R)-2-(1-((2-chloro-6-(5-((((4,4-difluoropentan-2-yl)oxy)carbonyl)amino)-1-methyl-1H-1,2,3-triazol-4-yl)pyridin-3-yl)ethynyl)cyclopropyl)acetic acid] | – | – | – | 0.0249 | 6.18 | 5 to 10 | 0.8 to 5 | 6.08 | 3 to 5 | 0.2 to 0.8 | – |
| Cc1nc(-c2nnn(C)c2CNc2nccc(C3CCC3)n2)ccc1C#CC1(CC(=O)O)CC1 [compound 214, 2-(1-((6-(5-(((4-cyclobutylpyrimidin-2-yl)amino)methyl)-1-methyl-1H-1,2,3-triazol-4-yl)-2-methylpyridin-3-yl)ethynyl)cyclopropyl)acetic acid] | – | – | – | 0.0094 | 7.01 | 3 to 5 | 0.8 to 5 | – | – | – | half-life ([2]; male, SD, rat, po, 3 mg/kg): 8.21 h; AUC(0-t) [2, 9]: 10 to 20 µg·h/mL; Cmax [2, 10]: 0.8 to 5 µg/mL |
| CCC(F)(F)[C@@H](C)OC(=O)Nc1c(-c2ccc(C#C[C@@H]3CCC[C@H]3C(=O)O)c(C)n2)nnn1C (mixture of isomers) [219-B, trans-2-((6-(5-(((((R)-3,3-difluoropentan-2-yl)oxy)carbonyl)amino)-1-methyl-1H-1,2,3-triazol-4-yl)-2-methylpyridin-3-yl)ethynyl)cyclopentane-1-carboxylic acid] | – | – | – | 0.0114 | 3.89 | 5 to 10 | 0.8 to 5 | 4.24 | 5 to 10 | 0.8 to 5 | – |
| Cc1nc(-c2nnn(C)c2CNc2nccc(C3CC(F)(F)C3)n2)ccc1C#CC1(CC(=O)O)CC1 [compound 254] | – | – | – | 0.0639 | 7.04 | 3 to 5 | 5 to 8 | 5.13 | 3 to 5 | 0.2 to 0.8 | – |
| CCCCN(C)C(=O)OCc1c(-c2ccc(C#CC3(CC(=O)O)CC3)c(F)n2)nnn1C [compound 105] | 1.2 to 3 | 4.72 | 0.8 to 5 | – | – | – | – | – | – | – | IC50 [1, 3]: 0.0562 µM; AUC(0-t) ([2]; rat, SD rats, Po, 1 mg/kg): 1.2 to 3 µg·h/mL; half-life ([2]; rat, SD rats, Po, 1 mg/kg): 6.6 h; Cmax [2, 5]: 0.2 to 0.8 µg/mL |
| CC(OC(=O)Nc1c(-c2ccc(C#CC3(CC(=O)O)CC3)c(F)n2)nnn1C)C12CC(C1)C2 (centres unmarked) [237-A, 2-(1-((6-(5-(((1-(bicyclo[1.1.1]pentan-1-yl)ethoxy)carbonyl)amino)-1-methyl-1H-1,2,3-triazol-4-yl)-2-fluoropyridin-3-yl)ethynyl)cyclopropyl)acetic acid] | – | – | – | 0.0344 | 5.19 | 5 to 10 | 5 to 8 | 4 | 5 to 10 | 0.8 to 5 | – |
| Cc1nc(-c2nnn(C)c2NC(=O)O[C@H](C)CC(C)(F)F)ccc1C#C[C@@H]1CC[C@H]1C(=O)O (mixture of isomers) [213-B, trans-2-((6-(5-(((((R)-4,4-difluoropentan-2-yl)oxy)carbonyl)amino)-1-methyl-1H-1,2,3-triazol-4-yl)-2-methylpyridin-3-yl)ethynyl)cyclobutane-1-carboxylic acid] | – | – | – | 0.0368 | – | – | – | – | – | – | AUClast ([2]; SD rats, Iv, 1 mg/kg): *** (5000 ng/mL*hr ≤ AUClast < 10000 ng/mL*hr); Cmax ([2]; SD rats, Iv, 1 mg/kg): ** (800 ng/mL ≤ Cmax < 5000 ng/mL); T1/2 ([2]; SD rats, Iv, 1 mg/kg): 8.67 h; half-life ([2]; male, SD, rat, po, 3 mg/kg): 9.6 h; AUC(0-t) [2, 9]: 10 to 20 µg·h/mL; Cmax [2, 10]: 0.8 to 5 µg/mL |
| CCC(F)(F)CC(C)OC(=O)Nc1c(-c2ccc(C#CC3CCC3C(=O)O)c(C)n2)nnn1C (single isomer, unassigned) [245-B] | 3 to 5 | 7.22 | 0.8 to 5 | 0.0346 | – | – | – | – | – | – | AUC(0-t) ([2]; rat, SD rats, Po, 1 mg/kg): 3 to 5 µg·h/mL; half-life ([2]; rat, SD rats, Po, 1 mg/kg): 6.66 h; Cmax [2, 5]: 0.2 to 0.8 µg/mL |
| Cc1nc(-c2nnn(C)c2COc2nccc(C3CC(F)(F)C3)n2)ccc1C#CC1(CC(=O)O)CC1 [compound 216, 2-(1-((6-(5-(((4-(3,3-difluorocyclobutyl)pyrimidin-2-yl)oxy)methyl)-1-methyl-1H-1,2,3-triazol-4-yl)-2-methylpyridin-3-yl)ethynyl)cyclopropyl)acetic acid] | – | – | – | 0.0233 | 4.9 | 1.2 to 3 | 5 to 8 | – | – | – | half-life ([2]; male, SD, rat, po, 3 mg/kg): 4.44 h; AUC(0-t) [2, 9]: 5 to 10 µg·h/mL; Cmax [2, 10]: 0.8 to 5 µg/mL |
| Cc1nc(-c2nnn(C)c2CNC(=O)OCc2ccccc2)ccc1C#CC1(CC(=O)O)CC1 [compound 215] | 1.2 to 3 | 5.03 | 0.8 to 5 | – | – | – | – | – | – | – | IC50 [1, 3]: 0.043 µM; AUC(0-t) ([2]; rat, SD rats, Po, 3 mg/kg): 5 to 10 µg·h/mL; half-life ([2]; rat, SD rats, Po, 3 mg/kg): 4.49 h; Cmax ([2]; rat, SD rats, Po, 3 mg/kg, read-out: Cmax): 0.8 to 5 µg/mL |
| Cc1nc(-c2nnn(C)c2NC(=O)O[C@H](C)CC(C)(C)F)ccc1C#C[C@@H]1CCC[C@H]1C(=O)O (mixture of isomers) [244-B, trans-2-((6-(5-(((((R)-4-fluoro-4-methylpentan-2-yl)oxy)carbonyl)amino)-1-methyl-1H-1,2,3-triazol-4-yl)-2-methylpyridin-3-yl)ethynyl)cyclopentane-1-carboxylic acid] | – | – | – | 0.0192 | 5.05 | 5 to 10 | 0.8 to 5 | 4.07 | 5 to 10 | 0.8 to 5 | – |
| Cc1nc(-c2nnn(C)c2NC(=O)O[C@H](C)CC(C)(C)F)ccc1C#CC1(CC(=O)O)CC1 [compound 263] | 3 to 5 | 13.8 | 0.8 to 5 | – | – | – | – | – | – | – | IC50 [1, 3]: 0.0528 µM; AUC(0-t) ([2]; rat, SD rats, Po, 1 mg/kg): 5 to 10 µg·h/mL; half-life ([2]; rat, SD rats, Po, 1 mg/kg): 10.2 h; Cmax [2, 5]: 0.2 to 0.8 µg/mL |
| Cc1nc(-c2nnn(C)c2NC(=O)OC(C)c2cc(F)cnc2Cl)ccc1C#CC1(CC(=O)O)CC1 (single isomer, unassigned) [023-A, 2-(1-((6-(5-(((1-(2-chloro-5-fluoropyridin-3-yl)ethoxy)carbonyl)amino)-1-methyl-1H-1,2,3-triazol-4-yl)-2-methylpyridin-3-yl)ethynyl)cyclopropyl)acetic acid] | – | – | – | 0.0372 | 7.5 | 3 to 5 | 5 to 8 | – | – | – | – |
| Cc1nc(-c2nnn(C)c2COC(=O)N(C)C(C)C2CCC2)ccc1C#CC1(CC(=O)O)CC1 (centres unmarked) [compound 211, 2-(1-((6-(5-((((1-cyclobutylethyl)(methyl)carbamoyl)oxy)methyl)-1-methyl-1H-1,2,3-triazol-4-yl)-2-methylpyridin-3-yl)ethynyl)cyclopropyl)acetic acid] | – | – | – | 0.0138 | – | – | – | – | – | – | – |
| CCCC(C)OC(=O)Nc1c(-c2ccc(C#CC3(CC(=O)O)CC3)c(C)n2)nnn1C (centres unmarked) [compound 010, 2-(1-((2-methyl-6-(1-methyl-5-(((pentan-2-yloxy)carbonyl)amino)-1H-1,2,3-triazol-4-yl)pyridin-3-yl)ethynyl)cyclopropyl)acetic acid] | – | – | – | 0.0562 | – | – | – | – | – | – | – |
